Test results from publication PMC9608995 (Pharmaceutics, 2022).
Marks after values point to notes of the source that are not given here.

What was measured:
H. nana [1] = test: Worm burden and worm reduction in H. nana-infected rats; assay type: in vivo, Hymenolepis nana; details: for Percentage reduction of worm count: rats; for Worm count: worm numbers per rat, 23rd day, n = 10
Text: (§1) Mature H. nana worms were gathered from naturally-infected Mus musculus and kept in outbred rats. Thereafter, collection of the eggs was executed from infected rats that were euthanized on day 16th post infection. Infectious shell-free eggs were produced from the gravid segments of adult worms via agitating the egg suspension with 3 mm-diameter glass beads shortly prior to use.
(§2) The rats were males weighing 120–150 g and were free of parasitic infections. The rats were housed in a specific pathogen-free environment under standard conditions (22 ± 2 °C and 50–60% humidity) and were supplied food and water ad libitum. Rats of groups I-V were inoculated with shell-free eggs via the oral route using a stomach tube. Each animal received 3000 eggs in 0.1 mL of PBS pH 7.4. At day 16th post infection, a fecal examination was carried out and egg count per gram was detected using the McMaster technique. Group I was used as the infected non-treated control group. […] Animals of group VI were used as the non-infected non-treated control group. […] All procedures for agent administration, blood and tissue manipulation were in accordance with the Guide for the Care and Use of Laboratory Animals (8th edition) published in 2011 by the United States National Academy of Sciences.
On the 23rd day of the experiment, the rats were euthanized and the small intestines were removed. The small intestines were longitudinally dissected and the worm burdens were assessed.

H. nana [2] = test: Fecal egg count and egg reduction in H. nana-infected rats; assay type: in vivo, Hymenolepis nana; details: for Percentage reduction of egg count: 1st and 3rd day after treatment; for Mean egg count, 1st day after treatment / Mean egg count, 3rd day after treatment: fecal egg count per gram (EPG), n = 10
Text: as §1, §2
Fecal egg count per gram (EPG) was estimated in the different groups on day 21 and 23 of the experiment. Fecal egg reduction percentage was calculated based on the formula [34]: Fecal egg reduction percentage=EPG before treatment−EPG post treatment/EPG before treatment×100

[3] = Oral pharmacokinetics in rats, LC-MS/MS, non-compartmental analysis; details: male, Wistar, rat, 12.5 mg/kg
Method: Twelve male Wistar rats (120–150 g), procured from the animal facility of the Research Institute of Ophthalmology (Giza, Egypt), were arbitrarily allocated into two groups of six rats each. The polyacrylic cages, which the rats were lodged in, were maintained under controlled temperature (22 ± 2 °C) and relative humidity (55 ± 5%), in the presence of day and night cycled over 12 h intervals. The animals were provided with tap water ad libitum and standard forage till the night before dosing was commenced so that a 12 h starvation period was allowed. […] Next, centrifugation at 4000 rpm was directly applied to the tubes for 10 min in order to collect plasma. The isolated plasma samples were stored at −20 °C pending assay. The current study was reviewed and approved by our institutional Animal Ethics Committee of Beni-Suef University (protocol approval code: REC-A-PhBSU-20015).
A liquid chromatography–tandem mass spectrometry (LC–MS/MS) method was employed to assay the gathered plasma samples for PRZ. An Agilent eclipse C18 column (Agilent Technologies, Santa Clara, CA, USA) with the dimensions of 3.5 µm × 4.6 mm × 100 mm was employed for chromatographic separation utilizing the isocratic elution technique. The mobile phase, consisted of methanol and 0.1% formic acid (85:15, v/v), was delivered at a flow rate of 0.8 mL/min (split ratio 1/1). A sample injection volume of 10 µL was utilized. The temperatures of the column and autosampler oven were set to 40 °C and 15 °C, respectively. Electrospray ionization (ESI) in the positive mode was used for the operation of the mass spectrometer. Nitrogen was employed as the auxiliary and nebulizer gas. Source temperature, nebulizer gas, curtain gas and heater gas (i.e., the principal operation parameters) were adjusted at 500 °C, 60 psi, 25 psi and 60 psi, respectively. The ion spray voltage was tuned at 5500 V. Entrance potential, declustering potential, collision energy and collision exit potential (i.e., the compound parameters) were 10, 130, 15, 20 V for PRZ and 10, 91, 29, 12 V for diazepam as an internal standard (IS), respectively. Quantification was performed in the multiple reactions monitoring mode with m/z 313.18 → 203.10 for PRZ and m/z 285.31→193.00 for IS. Operation of the detector was at 1900 V. Analytical data processing was carried out through Analyst software (Version 1.4.2, Applied Biosystems, MDS SCIEX, Concord, ON, Canada).
A procedure based on liquid–liquid extraction was utilized. Briefly, to a plasma sample (100 µL), 10 µL of IS solution (50 ng/mL) was spiked and 1 mL of methyl-ter-butyl ether was added. The mixture was vortexed for 30 s to ensure homogeneity and then centrifugation at 3000 rpm was applied for 10 min. Into a conical glass tube, the transparent supernatant was transmitted and left at ambient temperature until the organic layer was entirely evaporated. The residues resulting from the evaporation process were then dissolved in the mobile phase and 10 µL of the solution was subsequently injected through the autosampler.
The non-compartmental pharmacokinetic analysis function built into the Excel Add-In software, PK Solver, was employed to analyze the time course of the PRZ concentration in rat plasma for estimation of pharmacokinetic parameters. The software assesses the maximal drug concentration (Cmax, ng/mL) and elapsed time to attain such concentration (Tmax, h) directly from the plasma concentration–time curve. The software adopts the trapezoidal rule method for quantifying the area under the curve (AUC) from 0 to t (AUC0–t, ng h/mL) and from 0 to infinity (AUC0–∞, ng h/mL).

H. nana eggs = test: In vitro ovicidal activity, Fuchsin vital stain; assay type: cell-based, Hymenolepis nana; details: PRZ-PMMs finding at 50 µg/mL
Method: Three tubes for each concentration of each formulation were prepared. On clean glass slides, 100 µL of eggs of the different treatments were added and stained with 20 µL of freshly prepared Fuchsin for 10 min and examined under a light microscope.

[4] = In vitro release, membrane diffusion procedure, with kinetic model fitting; assay type: physicochemical; details: PBS pH 7.4 with 0.2% w/v SLS, 37 °C
Method: In triplicate, the release behavior of PRZ from the assembled PMMs was investigated utilizing a type 1, SR 8 Plus USP dissolution tester apparatus (Hanson Research, Chatsworth, Los Angeles, CA, USA) employing the membrane diffusion procedure. […] For establishing the sink condition, 70 mL of phosphate-buffered saline (PBS) comprising 0.2% w/v sodium lauryl sulfate (SLS) was used as the release milieu after adjusting the pH to 7.4 and setting the temperature to 37 ± 0.5 °C [27]. After fixing the filled cylinders to the USP dissolution apparatus shafts, a revolving speed of 50 rpm was applied. About 1-mL aliquots were intermittently pulled out after 0.5, 1, 2, 4, 6, 8, 12 and lastly after 24 h as prescheduled time intervals. In order to maintain the volume of the dissolution milieu at a fixed level, each aspiration was recompensed with a fresh milieu. After applying the appropriate dilution, a spectrophotometer set at λmax 263 was used to quantify PRZ in the collected samples. Afterwards, PRZ accumulative % released, as mean (±SD) values, was graphed versus time. An analogous experimentation was conducted on 2 mL of 1.5 mg/mL free PRZ aqueous suspension for comparative purposes. […] Amplification of the coefficient of determination (R^2) made the grounds for picking the most appropriate arithmetic model.

[5] = cited from earlier work
H. nana [6] = test: Intestinal histopathology (H&E) in H. nana-infected rats; assay type: in vivo, Hymenolepis nana
Method: as §2
Intestines of rats from different groups were gathered and instantly fixed for 24 h in neutrally buffered 10% formalin. Wet tissue sections were dehydrated through a series of alcohols and embedded in paraffin. Serial 4 μm thick cuts were made on all paraffin blocks by rotatory microtome. Thereafter, the cuts were fixed on glass slides and the paraffin was removed. […]

[7] = cited from earlier work; remark: listed apart in the source
[8] = single oral dose 25 mg/kg, 25 mg/kg
[9] = single oral dose 25 mg/kg, listed as crude PRZ, 25 mg/kg

## O=C(C1CCCCC1)N1CC(=O)N2CCc3ccccc3C2C1 (stereo not shown) [Crude PRZ, praziquantel]
H. nana [1]; single oral dose 12.5 mg/kg, 12.5 mg/kg
  Percentage reduction of worm count: 73.3%
H. nana [1]; single oral dose 12.5 mg/kg, listed as crude PRZ, 12.5 mg/kg
  Percentage reduction of worm count: 73.3%
H. nana [1]; [8]
  Percentage reduction of worm count: 100%
H. nana [1]; [9]
  Percentage reduction of worm count: 100%
H. nana [1]; single oral dose 12.5 mg/kg
  Worm count: 16.60 ± 1.14 ^a,b,d,e
H. nana [1]; single oral dose 25 mg/kg
  Worm count: 0.00 ± 0.00 ^a
H. nana [2]; single oral dose 12.5 mg/kg
  Percentage reduction of egg count: 90.6–91.1%
  Mean egg count, 1st day after treatment: 1033.20 ± 40.83 ^a,b,d,e
  Mean egg count, 3rd day after treatment: 966.60 ± 40.83 ^a,b,d,e
H. nana [2]; single oral dose 12.5 mg/kg, 21st day
  Reduction of eggs output in feces: 90.6%
H. nana [2]; single oral dose 12.5 mg/kg, 23rd day
  Reduction of eggs output in feces: 91.1%
H. nana [2]; [8]
  Percentage reduction of egg count: 100%
H. nana [2]; [9]
  Percentage reduction of egg count: 100%
H. nana [2]; single oral dose 25 mg/kg
  Mean egg count, 1st day after treatment: 0.00 ± 0.00 ^a,c
  Mean egg count, 3rd day after treatment: 0.00 ± 0.00 ^a,c
[3]; in vivo
  half-life: 1.11 ± 0.04 h
[3]; po
  AUC(0-inf): 566 ± 102 ng·h/mL
  AUC(0-t): 390 ± 95.3 ng·h/mL
  Cmax: 290 ± 28.5 ng/mL
  MRT: 3.05 ± 0.46 h
  Tmax: 0.24 ± 0.03 h
  k el: 0.000173 s⁻¹
H. nana eggs
  Morphological changes of the eggs: mild shell deformities and embryo damage
[4]
  Accumulative % released at 1 h: 98.81 ± 5.94%
[5]
  Terminal half-life: 1 to 1.5 h
H. nana [6]; 12.5 mg/kg oral
  Intestinal histopathology, parasitic sections: submucosal granulomatous reaction in association with the detected parasitic sections
H. nana [6]; 25 mg/kg oral
  Intestinal histopathology, parasitic sections: no parasitic sections
[7]
  Intrinsic hydrosolubility: ~ 0.3 mg/mL
